Measurements published in publication PMC6744417, “ALKBH overexpression in head and neck cancer: potential target for novel anticancer therapy” (Scientific Reports, 2019).
Read-outs that look alike come from different tables or passages of the source.

Legend:
[1] = target: T1, FTO (Homo sapiens, UniProt Q9C0B1); assay: FTO N6meA demethylation Chemiluminescent Assay Kit; type: biochemical; conditions: FTO 330 nM; N6meA on RNA; read-out: IC50 (Enzyme: FTO 330nM; Substrate: N6meA)
T1 construct: His; made in house; host or cells: E. coli BL-21
T1 sequence (Q9C0B1 whole entry): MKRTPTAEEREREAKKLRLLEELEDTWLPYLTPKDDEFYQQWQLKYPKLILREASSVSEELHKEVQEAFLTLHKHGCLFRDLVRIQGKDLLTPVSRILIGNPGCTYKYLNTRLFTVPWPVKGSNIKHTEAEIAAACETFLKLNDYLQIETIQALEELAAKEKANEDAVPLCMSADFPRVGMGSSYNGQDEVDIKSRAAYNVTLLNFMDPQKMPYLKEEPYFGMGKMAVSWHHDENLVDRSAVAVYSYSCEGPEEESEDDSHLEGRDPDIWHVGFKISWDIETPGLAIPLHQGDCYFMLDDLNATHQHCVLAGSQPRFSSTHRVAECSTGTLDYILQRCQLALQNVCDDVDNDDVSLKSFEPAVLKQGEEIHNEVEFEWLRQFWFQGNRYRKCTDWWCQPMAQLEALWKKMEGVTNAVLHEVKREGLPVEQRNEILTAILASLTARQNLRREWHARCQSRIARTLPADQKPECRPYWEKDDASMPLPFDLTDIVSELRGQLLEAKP
Method: To measure the activity of obtained by us FTO protein, Chemiluminescent Assay Kit was used (BPS Bioscience). As a substrate, we used N^6meA modification on RNA. The reactions were carried out according to the manufacturer’s protocol. Chemiluminescence was measured using the plate reader Synergy HT (Bio Tek) with 1 sec of integration time and 100 ms of delay after plate movement.

[2] = target: T2, EcAlkB (Escherichia coli, UniProt P05050); assay: In vitro inhibition assay of demethylation activity (HPLC), AlkB; type: biochemical
T2 construct: made in house
T2 sequence (P05050 whole entry): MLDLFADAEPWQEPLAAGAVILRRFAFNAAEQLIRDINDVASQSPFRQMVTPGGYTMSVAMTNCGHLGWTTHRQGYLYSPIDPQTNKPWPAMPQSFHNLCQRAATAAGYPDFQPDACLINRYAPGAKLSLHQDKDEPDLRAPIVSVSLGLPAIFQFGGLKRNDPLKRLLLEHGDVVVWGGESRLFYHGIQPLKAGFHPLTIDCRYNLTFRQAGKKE
Method: (§1) For EcAlkB, ALKBH3, and FTO, the inhibitory effect was further quantified by measuring inhibition of demethylation activity in vitro (Fig. 6D). […]. The reactions were carried out for 30 min at 37 °C in 20 µl of 50 mM Tris-HCl pH 7.5 with 1 mM DTT, 100 µM Fe(NH4)2(SO4)2, 50 µM 2OG, and 100 nM of AlkB or ALKBH3, 25 µM of substrate, and different concentrations of indicated inhibitors. […]. Modified and unmodified (repaired) products were separated and analyzed on Knauer HPLC system with C18 column (Waters NovaPak). The mobile phase binding buffer (20 mM TEAA) and elution buffer (acetonitrile) were mixed and flown at a rate of 1 ml/min. The detection wavelength was 260 nm.

[3] = system: U87 cells; assay: Alamar Blue viability assay, U87; type: cell-based, human; conditions: 48 h of treatment
Method: (§2) Exponentially growing cells at the density of 3 × 10^3 cells/well were seeded onto a 96-well plate, cultured for 18 h followed by the respective treatment of antraquinones or its derivatives in various concentrations or 34 nM RNA interference of ALKBH proteins, and then cultured for a an additional 48 h. Alamar Blue (Invitrogen) viability assay was performed according to manufacturer’s protocol: after 4 h incubation, emission at 590 nm was measured with excitation at 560 nm using a scanning multiwall multimode spectrophotometer (DTX 880, Beckman Coulter). The experiment was carried out at least three times, with three replicates for each inhibitor concentration. After background subtraction, inhibition rates, IC50, values were calculated as the concentration of the component that inhibits cell growth by 50%. All the calculations were done using Origin 9.0 software.

[4] = system: HeLa cells; assay: Flow cytometry Annexin V-FITC / propidium iodide, HeLa; type: cell-based, human; conditions: 48 h, untreated control 10.8%
Method: (§3) Silencing was performed using the lipofectamine RNAiMAX reagent (Invitrogen) and ready-to-use siRNA mixture (Santa Cruz Biotechnology) composed of at least two different siRNAs targeting the same gene, to knock down ALKBH1, 2, 3, 4, 5, 8, and FTO (Supplementary Table 2). 1 × 10^6 cells were seeded onto a 100 mm diameter dishes. After 24 h of incubation, siRNAs mixtures (with lipofectamine, in OPTI-MEM medium) were added. After 48 h, cells were collected for WB or flow cytometry analysis. For WB analysis, adherent cells were rinsed three times with PBS, scraped, and centrifuged (800 x g, 10 min, 4 °C). Next, cells were re-suspended in 100 μL RIPA buffer with a 1 x mammalian protease inhibitor cocktail (Sigma-Aldrich). The resulting lysates were spun down at 30 130 x g to remove insoluble particles, assayed for protein content using the Bradford assay, and loaded onto the SDS-PAGE at the protein amount of 20 μg per line. The strength of WB signals corresponding to the particular ALKBHs were calculated by densitometry. The expression changes by 30% were considered as significant.
(§4) The Annexin V-FITC apoptosis detection kit (ApoAlert Annexin V-FITC Apoptosis Kit, TaKaRa) was used to detect apoptosis by flow cytometry. Cells were seeded at 6-well plates at concentration of 5 × 10^5 cells/well, cultured for 18 h, and then the tested agent was applied for the indicated periods. Afterward, cells were washed with PBS, resuspended in binding buffer, and anti-Annexin V FITC-conjugated antibody and propidium iodide were added to 100 µl aliquots. The mixtures were incubated for 15 min at room temperature, supplemented with binding buffer to 500 µl, and processed using BD FACSCalibur (BD Biosciences). Data were analyzed in Flowing Software version 2.5.1 (Flowing Software, http://www.uskonaskel.fi/flowingsoftware).

[5] = target: T1, FTO; assay: Thermal shift assay for ligand binding, FTO holo form; conditions: FTO holo form (2OG, Mn2+), 5 µM compound; holo form alone 52.8 ± 0.6 °C
Method: (§5) We tested the affinity of our newly synthesized anthraquinones, 7-chloroemodin and 5,7-dichloroemodin, (Fig. S13) for ALKBH3 and FTO and assessed their effect on the enzymatic activity of targeted proteins using the thermal shift assay (TSA). The thermodynamic parameters for thermal denaturation of both proteins were measured for their holo forms, in the presence of 2OG and Mn^2+, an analogue of Fe^2+.
(§6) The assay was developed previously to monitor ligand binding to AlkB[36]. Fluorescence experiments were performed using a Varian Cary Eclipse spectrofluorimeter. Emission was monitored at 345 nm (excitation at 280 nm) over a temperature range of 40-95 °C with heating rate of 1 °C/min. The protein samples were dissolved in HEPES buffer at pH 7.5 with 2 mM dithiotreitol (DTT) and 150 mM NaCl to a final concentration of 1.2 µM. The process of thermal unfolding was performed at a concentration of 5 µM of the tested compound, either in the presence or absence of cofactors (50 µM 2OG and 100 µM Mn(II)). The thermal unfolding of the holo form of the protein was always monitored and further used as the reference. All the calculations were performed using Origin 9.0 software, assuming the simplest model of two-state (Folded-Unfolded) transition.

[6] = system: BICR18 cells; assay: Alamar Blue viability assay, BICR18; type: cell-based, human; conditions: 48 h of treatment
Method: (§7) Alamar Blue (Invitrogen) viability assay was performed according to manufacturer’s protocol: after 4 h incubation, emission at 590 nm was measured with excitation at 560 nm using a scanning multiwall multimode spectrophotometer (DTX 880, Beckman Coulter). The experiment was carried out at least three times, with three replicates for each inhibitor concentration. […] All the calculations were done using Origin 9.0 software.

[7] = system: HEK293 cells; assay: Alamar Blue viability assay, HEK293; type: cell-based, human; conditions: 48 h of treatment
Method: as §7

[8] = target: T3, ALKBH3 (Homo sapiens, UniProt Q96Q83); assay: In vitro inhibition assay of demethylation activity (HPLC), ALKBH3; type: biochemical
T3 construct: made in house
T3 sequence (Q96Q83 1-286): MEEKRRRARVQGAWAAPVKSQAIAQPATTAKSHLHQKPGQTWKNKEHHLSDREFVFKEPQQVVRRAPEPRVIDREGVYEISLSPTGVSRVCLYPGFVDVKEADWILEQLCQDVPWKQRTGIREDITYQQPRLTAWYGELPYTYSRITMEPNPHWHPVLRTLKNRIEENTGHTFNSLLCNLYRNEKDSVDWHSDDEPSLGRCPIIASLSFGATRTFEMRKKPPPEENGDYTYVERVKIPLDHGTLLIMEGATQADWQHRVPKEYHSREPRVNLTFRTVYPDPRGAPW
Method: as §1

[9] = system: HeLa cells; assay: Alamar Blue viability assay, HeLa; type: cell-based, human; conditions: 48 h of treatment
Method: as §7

[10] = system: EUFA30 cells; assay: Alamar Blue viability assay, EUFA30; type: cell-based, human; conditions: normal fibroblast cells, 48 h of treatment
Method: as §2

[11] = system: HeLa cells; set-up: method as in ref 32 (Varela-Ramirez and co-workers 2011); conditions: ref 32 (Varela-Ramirez and co-workers 2011); cited from earlier work
[12] = target: T3, ALKBH3; assay: Thermal shift assay for ligand binding, ALKBH3 holo form; conditions: ALKBH3 holo form (2OG, Mn2+), 5 µM compound; result in words
Method: as §5, §6

[13] = system: U87 cells; set-up: method as in ref 14 (Li and co-workers 2016); conditions: ref 14 (Li and co-workers 2016); cited from earlier work
[14] = system: EUFA30 cells; assay: Flow cytometry Annexin V-FITC / propidium iodide, EUFA30; type: cell-based, human; conditions: EUFA30, 500 μM, 48 h
Method: as §3, §4

[15] = system: ALKBH3; set-up: method as in ref 14 (Li and co-workers 2016); conditions: ref 14 (Li and co-workers 2016); read-out: IC50 against ALKBH3; cited from earlier work
[16] = EcAlkB 100 nM, 3meC on TT(3meC)TT pentamer, 30 min 37 °C, read-out: IC50 (Enzyme: EcAlkB 100nM; Substrate: 3meC)
[17] = ALKBH3 100 nM, 3meC on TT(3meC)TT pentamer, 30 min 37 °C, read-out: IC50 (Enzyme: ALKBH3 100nM; Substrate: 3meC)

Structure (SMILES)	IC50 [1] [µM]	IC50 [2, 16] [µM]	IC50 [8, 17] [nM]	binding to ALKBH3 judged by increase of melting temperature [12]	IC50 [2] [µM]	IC50 ([3]; Homo sapiens, U-87 MG) [µM]	IC50 ([6]; Homo sapiens) [µM]	IC50 ([9]; Homo sapiens, HeLa) [µM]	IC50 ([10]; Homo sapiens) [µM]	IC50 ([7]; Homo sapiens, HEK293) [µM]	further results
Cc1cc2c(c(O)c1Cl)C(=O)c1c(O)cc(O)cc1C2=O [7-Chloroemodin]	28.1	19.8	116000 ± 7000	–	–	–	–	–	–	–	IC50 [3]: 120 µM; number of necrotic HeLa cells ([4]; 25 μM): 18.8%; number of necrotic HeLa cells ([4]; 100 μM): 37.6%; melting temperature of FTO-ligand complex [5]: 71.5 ± 0.2 °C; IC50 [6]: 99.5 µM; IC50 [7]: 180 µM; IC50 [9]: 33.8 µM; IC50 [10]: 163 µM
[CH3][Sn]([Cl])([c]1ccccc1)[c]1ccccc1 [DPMT, diphenylmethyltin chloride]	–	–	–	–	–	–	–	–	–	–	necrosis on HeLa cells [11]: more than 40 % of cells
Cc1c(Cl)c(O)c2c(c1Cl)C(=O)c1cc(O)cc(O)c1C2=O [5,7-Dichloroemodin]	42.1 ± 6.5	16.4	176000 ± 6000	slightly more weakly	–	–	–	–	–	–	IC50 [3]: 158 µM; number of necrotic HeLa cells ([4]; 25 μM): 69.2%; number of necrotic HeLa cells ([4]; 100 μM): 83.1%; melting temperature of FTO-ligand complex [5]: 67.4 ± 0.1 °C; IC50 [6]: 39.8 µM; IC50 [7]: 87.3 µM; IC50 [9]: 10.6 µM; IC50 [10]: 102 µM
Cc1cc(O)c2c(c1)C(=O)c1cc(O)cc(O)c1C2=O [Emodin]	49.4 ± 19	–	540000 ± 160000	slightly more weakly	520 ± 100	42.7	81.1	110	138	–	–
O=C(O)c1cc(O)c2c(c1)C(=O)c1cccc(O)c1C2=O [Rhein]	–	–	–	strongest ligand	20.5	> 1000	89.4	126	423	157	cytotoxic effect against U87 cells [13]: did not found any cytotoxic effect; increase of early apoptosis stage compared to untreated control [14]: approximately 2 fold; increase of late apoptosis compared to untreated control [14]: 15 fold; increase of necrosis compared to untreated control [14]: 11 fold; IC50 [15]: 5.3 µM; IC50 ([8]; as printed in text in nM, 3meC substrate, read-out: IC50 against ALKBH3): 40 nM
O=C1c2cccc(O)c2C(=O)c2c(O)cc(CO)cc21 [Aloe-Emodin]	52 ± 12.6	–	8800	slightly more weakly	230 ± 100	> 1000	57.5	26	380	> 1000	cytotoxicity against U87 [3]: not cytotoxic; cytotoxicity against HEK293 [7]: not cytotoxic
Cc1c(C(=O)O)c(O)cc2c1C(=O)c1c(O)c([C@@H]3O[C@H](CO)[C@@H](O)[C@H](O)[C@H]3O)c(O)c(O)c1C2=O [Carminic Acid, Carminic acid]	25.3 ± 2.2	170 ± 70	111000 ± 7000	–	–	258	305	387	311	219	–
